The results in this text go back to US10526343B2, “Heterocyclic systems and pharmaceutical applications thereof” (University of Sharjah, priority 2018, dated 2020).

Usually MIC stands for the lowest concentration found to suppress growth.

The test system of one test is S. aureus (ATCC 25923). The test is described as follows: MIC by broth microdilution. Format: cell-based. The settings on record: Staphylococcus aureus, ATCC25923. Here is the method:
(§1) Bacteria of the genus Staphylococcus were selected for MIC investigation due to its clinical importance. Compounds showing activity against S. aureus (ATCC 25923) were tested against 10 multidrug-resistant strains of Staphylococcus species, including: clinical isolates methicillin-resistant Staphylococcus aureus (MRSA) strains MRSA-1, MRSA-2, and MRSA-3, and environmental isolates S. saprophyticus (strains UDH-1, UDH-2, UDH-3 and UDH-4), S. haemolyticus (strains UDH-6 and UDH-7), and S. epidermidis strain UDH-5.
(§2) A broth microdilution method was used to measure MIC according to the Clinical and Laboratory Standards Institute guidelines. Two-fold serial dilutions of the test compound (8 concentrations ranged between 100-0.78 μg/mL) were tested. Two reference antibiotics were used as quality controls (ciprofloxacin and amikacin). In each experiment, solvent (DMSO) was used as a negative control, un-treated control (composing of bacteria in Mueller-Hinton broth) was used as a growth control, blank (culture media alone) was used as sterility control. The 96-well microplate with the test compounds was incubated for 20 hours at 37° C. Turbidity in wells indicated bacterial growth. […] For the definite determination of MIC, CellTiter-Blue® Cell Viability Assay (Promega, USA) was used (as above). The MIC was defined as the lowest compound concentration that prevented the color change of the Cell Viability solution (absence of bacterial growth; thus, suspension remained blue in color). For the definite determination of MIC, CellTiter-Blue® Cell Viability Assay (Promega, USA) was used (as above). To each well of the 96-well microplate, 20 μL of the Cell Viability Assay solution was added to the overnight (20 hours culture) and incubated at 37° C. for 4 hours. After the end of the incubation, pink and blue colors were used to differentiate viable from dead bacterial suspensions, respectively. The MIC was defined as the lowest compound concentration that prevented the color change.
Background: Broth dilution looks for growth in wells or tubes with falling amounts of substance.

In test [1] the test system is UDH-1 (environmental isolate, S. saprophyticus). In words: MIC by broth microdilution. Format: cell-based. The note with it: for MIC: Staphylococcus saprophyticus, environmental isolate; for times lower than MIC of ciprofloxacin: UDH-1. The method, then:
as §1
(§3) All these strains were resistant to at least three antibiotics from different classes, as confirmed by a disk diffusion assay.
as §2

Test [2] has as its system UDH-2 (environmental isolate, S. saprophyticus). In words: MIC by broth microdilution. In kind it is cell-based. The note with it: Staphylococcus saprophyticus. Here is the method:
as §1, §3, §2

The test system of test [3] is UDH-3 (environmental isolate, S. saprophyticus). In words: MIC by broth microdilution. In kind it is cell-based. The note with it: for MIC: Staphylococcus saprophyticus, environmental isolate; for times lower than MIC of ciprofloxacin: UDH-3. Here is the method: as §1, §3, §2
In test [4] the test system is UDH-4 (environmental isolate, S. saprophyticus). The test is described as follows: MIC by broth microdilution. Format: cell-based. The note with it: Staphylococcus saprophyticus. Here is the method:
as §1, §3, §2

Test [5] relates to UDH-5 (environmental isolate, S. epidermidis). The test is described as follows: MIC by broth microdilution. In kind it is cell-based. The settings on record: Staphylococcus epidermidis. Here is the method:
as §1, §3, §2

For test [6], the system named is UDH-6 (environmental isolate, S. haemolyticus). The test is described as follows: MIC by broth microdilution. In kind it is cell-based. The settings on record: for MIC: Staphylococcus haemolyticus, environmental isolate. Here is the method:
as §1, §3, §2

Test [7] deals with UDH-7 (environmental isolate, S. haemolyticus). In words: MIC by broth microdilution. In kind it is cell-based. The note with it: for MIC: Staphylococcus haemolyticus, environmental isolate. The method, then: as §1, §3, §2
The test system of a further test is MRSA-1. In words: Time-kill study. In kind it is cell-based, Staphylococcus aureus. The method, then:
Time-kill study: Compound 1o was tested for the time required to kill the bacterial strain MRSA-1. A time-kill assay was performed by the broth micro-dilution method in accordance with the CLSI guidelines. Inoculum suspensions with approximately 5×10^5 CFU/mL of exponentially growing bacterial cells were incubated in each well of a 96-well plate. […] Aliquots of 20 μL were removed from the inoculum culture after timed intervals of incubation (i.e. 0, 30 minutes, 1, 2, 4, 6, 8, and 24 hours), and serial 10-fold dilutions were prepared in 0.85% sodium chloride solution. Then, 10-100 μL of each dilution (as appropriate) were spread on the surface of Mueller-Hinton agar plates and incubated at 37° C. for 24 hours. Plate count technique was used to determine the number of viable cells for each time point. The experiments were performed in triplicate. Meropenem and ciprofloxacin were used as quality control antibiotics.

In test [8] the test system is Staphylococcus aureus (ATCC 25923). In words: Cell viability assay (resazurin) screening for antibacterial activity. The settings on record: single high concentration of 1 mg/mL. In kind it is cell-based. Also noted: key: Positive: A positive result indicates antibacterial activity expressed as growth inhibition; Negative: a negative result indicates no antibacterial activity expressed as bacterial growth at the tested concentration. For orientation: Alamar Blue is a resazurin reagent that responds to reducing activity.

The subject of test [9] is Enterococcus faecalis (ATCC 29212). Described as above. Format: cell-based. Also noted: key: Positive: A positive result indicates antibacterial activity expressed as growth inhibition; Negative: a negative result indicates no antibacterial activity expressed as bacterial growth at the tested concentration. The note with it: single high concentration of 1 mg/mL.
The subject of test [10] is Bacillus subtilis (environmental isolate). The description is as above. In kind it is cell-based. The settings on record: single high concentration of 1 mg/mL. Also noted: key: Positive: A positive result indicates antibacterial activity expressed as growth inhibition; Negative: a negative result indicates no antibacterial activity expressed as bacterial growth at the tested concentration.

The test system of test [11] is Escherichia coli (ATCC 25922). Described as above. In kind it is cell-based. The note with it: single high concentration of 1 mg/mL. Also on record: key: Positive: A positive result indicates antibacterial activity expressed as growth inhibition; Negative: a negative result indicates no antibacterial activity expressed as bacterial growth at the tested concentration.

For test [12], the system named is Pseudomonas aeruginosa (ATCC 27853). The test is described as above. In kind it is cell-based. Also on record: key: Positive: A positive result indicates antibacterial activity expressed as growth inhibition; Negative: a negative result indicates no antibacterial activity expressed as bacterial growth at the tested concentration. The settings on record: single high concentration of 1 mg/mL.

For test [13], the system named is MRSA-1 (clinical isolate, methicillin-resistant Staphylococcus aureus). The test is described as follows: MIC by broth microdilution. In kind it is cell-based. The settings on record: for MIC: Staphylococcus aureus, MRSA, clinical isolate. The method, then: (§4) Bacteria of the genus Staphylococcus were selected for MIC investigation due to its clinical importance.
as §2, with “Two reference antibiotics were used as quality controls (ciprofloxacin and amikacin).” left out

For test [14], the system named is MRSA-2 (clinical isolate, methicillin-resistant Staphylococcus aureus). In words: MIC by broth microdilution. In kind it is cell-based. The method, then: as §4
as §2, with “Two reference antibiotics were used as quality controls (ciprofloxacin and amikacin).” left out

In test [15] the test system is MRSA-3 (clinical isolate, methicillin-resistant Staphylococcus aureus). The test is described as follows: MIC by broth microdilution. In kind it is cell-based. The method, then: as §4
as §2, with “Two reference antibiotics were used as quality controls (ciprofloxacin and amikacin).” left out

Converted amounts (≈) assume the structure as drawn.

On to `O=C(O)c1cn(C2CC2)c2cc(N3CCNCC3)c(F)cc2c1=O` [Ciprofloxacin, ciprofloxacin, reference compound], for which the MIC against S. aureus (ATCC 25923) is 0.5 µg/mL (≈ 1.51 µM); in [1], 64 µg/mL (≈ 193 µM); in test [2], 64 µg/mL (≈ 193 µM); in test [3], 64 µg/mL (≈ 193 µM); in test [4], 64 µg/mL (≈ 193 µM); in test [5], under 0.25 µg/mL. For the same compound, the MIC in test [6] and in test [7] was 64 µg/mL (≈ 193 µM) each time. Also, the “time of exposure at which killing was achieved (complete growth inhibition)” value in the test with MRSA-1 (32-256 μg/mL) came out at 24 h.
With `C[C@@H](O)[C@H]1C(=O)N2C(C(=O)O)=C(S[C@@H]3CN[C@H](C(=O)N(C)C)C3)[C@H](C)[C@H]12` [meropenem, reference compound], the “time of exposure at which killing was achieved” value in the test with MRSA-1 (8 μg/mL) came out at 8 h; with MRSA-1 (16 μg/mL), 6 h; with MRSA-1 (2-4 μg/mL) it was 24 h. For the same compound, the “time of exposure at which killing was achieved (complete inhibition of bacterial growth)” value in the test on MRSA-1 (32-64 μg/mL) was 4 h.
As to `COC(=O)CC1COc2c(cc3c4c2CCCN4CCC3)-c2c(NC(C)(C)C)n3c(-c4ccc(F)cc4)c(C)sc3[n+]21` (stereo not shown) [Compound 1n], in test [8], the “antibacterial activity, Staphylococcus aureus” value is “Positive”. Further, the “antibacterial activity, Enterococcus faecalis” value in [9] is listed as “Positive”. Moreover, in test [10], the “antibacterial activity, Bacillus subtilis” value is listed as “Positive”. Also, the “antibacterial activity, Escherichia coli” value in test [11] is listed as “Negative”. In test [12], the “antibacterial activity, Pseudomonas aeruginosa” value is reported as “Negative”. Further, the MIC with S. aureus (ATCC 25923) stood at 6.25 µg/mL; in test [13], 12.5 µg/mL; in test [14], 12.5 µg/mL; in test [15], 12.5 µg/mL; in [1], 12.5 µg/mL; in [2], 12.5 µg/mL. The MIC in test [3] came out at 12.5 µg/mL; in test [4], 12.5 µg/mL; in test [5], 6.25 µg/mL; in test [6] it was 25 µg/mL; in [7] it was 25 µg/mL.
For `COC(=O)CC1COc2c(cc3c4c2CCCN4CCC3)-c2c(NC(C)(C)C)n3c(-c4cc(OC)ccc4OC)csc3[n+]21` (stereo not shown) [Compound 1t], the “antibacterial activity, Staphylococcus aureus” value in test [8] is listed as “Positive”. Also, the “antibacterial activity, Enterococcus faecalis” value in test [9] is reported as “Positive”. The “antibacterial activity, Bacillus subtilis” value in test [10] is listed as “Positive”. Further, the “antibacterial activity, Escherichia coli” value in test [11] is on record as “Negative”. Moreover, the “antibacterial activity, Pseudomonas aeruginosa” value in [12] is “Negative”. Further, the minimal inhibitory concentration (MIC) was found to be 3.12 µg/mL in the test with S. aureus (ATCC 25923); 6.25 µg/mL in [13]; 3.12 µg/mL in [14]; 3.12 µg/mL in test [15]; 6.25 µg/mL in test [1]; 6.25 µg/mL in test [2]. For the same compound, the MIC in test [3] was 6.25 µg/mL; in [4], 6.25 µg/mL; in test [5], 3.12 µg/mL; in [6], 12.5 µg/mL; in [7], 12.5 µg/mL. In test [1], the “times lower than MIC of ciprofloxacin” value is “approximately 10 times”.
`CCN(CC)c1ccc2c(c1)OCC(CC(=O)OC)[n+]1c-2c(NC(C)(C)C)n2c(-c3ccc(OC)cc3)c(-c3ccc(OC)cc3)sc21` (stereo not shown) [Compound 1h]: the “antibacterial activity, Staphylococcus aureus” value in test [8] is reported as “Positive”. The “antibacterial activity, Enterococcus faecalis” value in test [9] was “Positive”. In addition, the “antibacterial activity, Bacillus subtilis” value in test [10] is listed as “Positive”. Further, in test [11], the “antibacterial activity, Escherichia coli” value is “Negative”. Moreover, the “antibacterial activity, Pseudomonas aeruginosa” value in [12] was “Negative”. The MIC was 6.25 µg/mL with S. aureus (ATCC 25923); 6.25 µg/mL in test [13]; 6.25 µg/mL in test [14]; 3.12 µg/mL in test [15]; 6.25 µg/mL in test [1]; 6.25 µg/mL in [2]. The MIC in test [3] came out at 3.12 µg/mL; in [4] it was 6.25 µg/mL; in test [5], 1.56 µg/mL; in test [6] it was 6.25 µg/mL; in [7], 12.5 µg/mL. Further, the entries for the “times lower than MIC of ciprofloxacin” value in [1] and in test [3] were “approximately 10 times” and “approximately 20 times”, respectively.
Turning to `COC(=O)CC1COc2c(cc3c4c2CCCN4CCC3)-c2c(NC(C)(C)C)n3c(-c4cccc5c4OCO5)c(C)sc3[n+]21` (stereo not shown) [Compound 1u], the “antibacterial activity, Staphylococcus aureus” value in test [8] was “Positive”. In addition, the “antibacterial activity, Enterococcus faecalis” value in test [9] was “Positive”. In addition, in test [10], the “antibacterial activity, Bacillus subtilis” value is on record as “Positive”. Further, the “antibacterial activity, Escherichia coli” value in test [11] is recorded as “Negative”. For the same compound, the “antibacterial activity, Pseudomonas aeruginosa” value in test [12] is “Negative”. Further, the MIC in the test with S. aureus (ATCC 25923) came out at 3.12 µg/mL; in test [13], 3.12 µg/mL; in test [14], 3.12 µg/mL; in [15], 3.12 µg/mL; in [1], 6.25 µg/mL; in test [2], 6.25 µg/mL. Also, the MIC in [3] amounted to 3.12 µg/mL; in [4] it was 6.25 µg/mL; in test [5], 1.56 µg/mL; in [6], 6.25 µg/mL; in [7], 6.25 µg/mL. Moreover, the “times lower than the MIC of ciprofloxacin” value in test [13] (MRSA-1) is reported as “approximately 10 times”. For the same compound, the “times lower than MIC of ciprofloxacin” value in test [1] is given as “approximately 10 times”; in test [3] it was “approximately 20 times”; in [6] (UDH-6) it was “approximately 10 times”; in test [7] (UDH-7), “approximately 10 times”.
